In BindingDB's records for doi:10.1021/jm00089a016 (Abbott Laboratories, 1992) one finds Ki data, which are given here for 16 compounds.

The test in a line: In vitro intrinsic binding affinity at platelet activating factor receptor using rabbit platelet membranes.

By Ki is commonly meant a measure of affinity in units of concentration, obtained from inhibition or displacement. A lower Ki goes with tighter binding.

SMILES strings stand for the structures.

Regarding `COc1cc(C(C)CCCc2ccc(F)cc2)cc2c1C1=C(CCN(Cc3ccccn3)C1)C(C)(C)O2` (stereo unspecified), the affinity, expressed as Ki, was 4.21 µM.
On to `CC1CSC2=C1c1c(O)cc(C(C)CCCc3ccc(F)cc3)cc1OC2(C)C` (stereo unspecified), for which the Ki was 43.8 µM.
In the case of `CNC(=O)CN(C)CC1=CC(C)(C)Oc2cc(C(C)CCCc3ccc(F)cc3)cc(O)c21` (stereo unspecified), the Ki is 1.57 µM.
Consider `COc1cc(C(C)CCCc2ccc(F)cc2)cc2c1C1=C(CCN(CCCCCC(=O)O)C1)C(C)(C)O2` (stereo unspecified), for which the Ki was found to be 25 µM.
As to `COc1cc(C(C)CCCc2ccc(F)cc2)cc2c1C1=C(CCN(CCCCC(=O)O)C1)C(C)(C)O2` (stereo unspecified), the Ki came to 5.5 µM.
Turning to `COc1cc(C(C)CCCc2ccc(F)cc2)cc2c1C1=C(CCN(CCC(=O)O)C1)C(C)(C)O2` (stereo unspecified), the Ki was 4.4 µM.
The same measure for `C#CCN1CCC2=C(C1)c1c(O)cc(C(C)CCCc3ccc(F)cc3)cc1OC2(C)C` (stereo unspecified): 3.25 µM; for `CNC(=O)CN1CCC(C(C)(C)O)=C(c2c(O)cc(C(C)CCCc3ccc(F)cc3)cc2O)C1` (stereo unspecified): 23.5 µM.
Regarding `CCCCCC(C)C(C)c1cc(O)c2c(c1)OC(C)(C)C1=C2CN(CC(=O)NC)CC1` (stereo unspecified), the Ki was determined as 3.68 µM.
Compound `CNC(=O)CN1CCC2=C(C1)c1c(OCC(=O)O)cc(C(C)CCCc3ccc(F)cc3)cc1OC2(C)C` (stereo unspecified) yielded a Ki of 0.925 µM.
The compound `CNC(=O)CN1CCC2=C(C1)c1c(OC)cc(C(C)CCCc3ccc(F)cc3)cc1OC2(C)C` (stereo unspecified) yielded a Ki of 0.142 µM.
In turn, `CC(CCCc1ccc(F)cc1)c1cc(O)c2c(c1)OC(C)(C)C1=C2CN(CC(=O)N(C)C)CC1` (stereo unspecified) yielded a Ki of 15.8 µM.
In turn, `CNC(=O)CN1CCC2=C(C1)c1c(O)cc(C(C)CCCc3ccc(F)cc3)cc1OC2(C)C` (stereo unspecified) gave a Ki of 0.331 µM.
As for `CC(CCCc1ccc(F)cc1)c1cc(O)c2c(c1)OC(C)(C)C1=C2CN(C(=O)CO)CC1` (stereo unspecified), the Ki stood at 20.5 µM.
For `CNC(=O)CN1CCC2=C(C1)c1c(O)cc(C(C)C)cc1OC2(C)C`, affinity was put at a Ki of 9 µM.
`CNC(=O)CCCN1CCC2=C(C1)c1c(O)cc(C(C)CCCc3ccc(F)cc3)cc1OC2(C)C` (stereo unspecified) had an inhibition constant Ki of 20.7 µM.
